According to PubChem BioAssay (NCI):
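Cells were grown in 96-well plates and exposed to each compound for 48 hours at five concentrations; endpoints were interpolated linearly between bracketing concentrations, or set to the highest concentration if not reached. GI50: concentration for 50% inhibition of growth. TGI is the concentration that stops growth completely.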

How the values were obtained:
Assay in all cases: NCI anticancer screen, dose series, 48 h
[1] = tested on: HCC-2998 colon
[2] = tested on: SK-MEL-5 melanoma
[3] = tested on: SW-620 colon
[4] = tested on: HOP-62 NSCLC
[5] = tested on: DU-145 prostate
[6] = tested on: M14 melanoma
[7] = tested on: MDA-MB-231 breast
[8] = tested on: RPMI-8226 leukemia
[9] = tested on: IGROV1 ovarian
[10] = tested on: MCF7 breast
[11] = tested on: NCI/ADR-RES ovarian
[12] = tested on: UACC-62 melanoma
[13] = tested on: MOLT-4 leukemia
[14] = tested on: 786-0 renal
[15] = tested on: SK-MEL-2 melanoma
[16] = tested on: SR leukemia
[17] = tested on: K-562 leukemia
[18] = tested on: SN12C renal
[19] = tested on: HOP-92 NSCLC
[20] = tested on: SF-539 CNS
[21] = tested on: PC-3 prostate
[22] = tested on: TK-10 renal
[23] = tested on: A498 renal
[24] = tested on: KM12 colon
[25] = tested on: HCT-15 colon
[26] = tested on: NCI-H522 lung
[27] = tested on: OVCAR-5 ovarian
[28] = tested on: CCRF-CEM leukemia

COc1ccc(CN2c3ccccc3Sc3ccccc32)cc1F was tested. Which TGI [1] did it give?
Its TGI is greater than 35800 nM.

And the GI50 [2]?
Its GI50 is 446 nM.

What about the TGI [2] of the same compound?
The TGI was greater than 100000 nM.

And the GI50 [3]?
The GI50 was 398 nM.

What about the TGI [3] of the same compound?
The TGI was greater than 100000 nM.

And the GI50 [4]?
The GI50 was 4340 nM.

And the TGI [4]?
Its TGI is greater than 100000 nM.

And the GI50 [5]?
The GI50 was 477 nM.

What about the TGI [5] of the same compound?
The TGI was greater than 100000 nM.

And the GI50 [6]?
The GI50 was 365 nM.

What about the TGI [6] of the same compound?
The TGI was greater than 100000 nM.

What about the GI50 [7] of the same compound?
The GI50 was 917 nM.

What about the TGI [7] of the same compound?
The TGI was greater than 88100 nM.

What about the GI50 [8] of the same compound?
Its GI50 is 483 nM.

And the TGI [8]?
The TGI was greater than 100000 nM.

What about the GI50 [9] of the same compound?
Its GI50 is 1450 nM.

What about the TGI [9] of the same compound?
Its TGI is greater than 100000 nM.

What about the GI50 [10] of the same compound?
Its GI50 is 464 nM.

And the TGI [10]?
Its TGI is greater than 100000 nM.

And the GI50 [11]?
The GI50 was 322 nM.

And the GI50 [12]?
Its GI50 is 516 nM.

And the TGI [12]?
The TGI was greater than 100000 nM.

And the GI50 [13]?
The GI50 was 438 nM.

And the TGI [13]?
Its TGI is greater than 100000 nM.

What about the GI50 [14] of the same compound?
Its GI50 is 615 nM.

And the TGI [14]?
Its TGI is greater than 100000 nM.

What about the GI50 [15] of the same compound?
The GI50 was 476 nM.

And the TGI [15]?
The TGI was greater than 100000 nM.

And the GI50 [16]?
The GI50 was 360 nM.

What about the TGI [16] of the same compound?
The TGI was greater than 42700 nM.

And the GI50 [17]?
The GI50 was 383 nM.

And the TGI [17]?
The TGI was greater than 100000 nM.

And the GI50 [18]?
Its GI50 is 1130 nM.

What about the TGI [18] of the same compound?
The TGI was greater than 100000 nM.

And the GI50 [19]?
Its GI50 is 1250 nM.

What about the TGI [19] of the same compound?
Its TGI is greater than 38900 nM.

What about the GI50 [20] of the same compound?
The GI50 was 316 nM.

And the TGI [20]?
Its TGI is 5580 nM.

What about the GI50 [21] of the same compound?
The GI50 was 448 nM.

And the TGI [21]?
Its TGI is greater than 100000 nM.

What about the GI50 [22] of the same compound?
The GI50 was greater than 100000 nM.

What about the TGI [22] of the same compound?
Its TGI is greater than 100000 nM.

And the GI50 [23]?
The GI50 was 283 nM.

What about the TGI [23] of the same compound?
The TGI was 927 nM.

What about the GI50 [24] of the same compound?
The GI50 was 471 nM.

What about the TGI [24] of the same compound?
The TGI was greater than 100000 nM.

What about the GI50 [25] of the same compound?
Its GI50 is 435 nM.

What about the TGI [25] of the same compound?
Its TGI is greater than 100000 nM.

And the GI50 [26]?
Its GI50 is 266 nM.

What about the TGI [26] of the same compound?
Its TGI is 804 nM.

What about the GI50 [27] of the same compound?
The GI50 was greater than 30400 nM.

What about the TGI [27] of the same compound?
The TGI was greater than 100000 nM.

What about the GI50 [28] of the same compound?
The GI50 was 407 nM.

What about the TGI [28] of the same compound?
Its TGI is greater than 100000 nM.
